Tests used:
[1] = tested on: P388 murine leukemia cell line; test: P388 cytotoxicity (antiproliferative) MTT assay; type: cell-based; conditions: P388 murine leukemia cells, 48 hours exposure
Procedure: (§1) Compounds were analyzed as to their effects on proliferation of A549 human lung adenocarcinoma and P388 murine leukemia cell lines. P388 cells were obtained from Dr. R. Camalier, National Cancer Institute, Bethesda, Md., and A549 cells were obtained from American Type Culture Collection, Rockville, Md. All cell lines were maintained in Roswell Park Memorial Institute (RPMI) medium 1640 supplemented with 100 U/ml penicillin, […], 60 […], 18 mM HEPES, 0.05 mg/ml gentamicin (Life Technologies, Gaithersburg, Md.) and 10% fetal bovine serum and cultured in plastic tissue culture flasks at 37° C. in humidified air containing 5% CO2. Stock cultures of P388 cells were subcultured 1:20 in fresh tissue culture medium (TCM) every 2 to 3 days. Stock cultures of A549 cells were subcultured 1:10 every 3 to 4 days.
(§2) To assess the antiproliferative effects of agents against P388 cells, 200 μl cultures (96-well tissue culture plates, Nunc, Denmark) were established at 2×10^4 cells/ml in TCM or TCM containing the test agent at 0.03-5.0 μg/ml. After 48 hours exposure, P388 cells were enumerated using 3-[4,5-dimethylthiazol-2-yl]-2,5-diphenyltetrazolium bromide (MTT) as described in the literature (Alley, M. D. et al. [1988] Cancer Res. 48:589). A549 cells were enumerated in the same manner using 200 μl cultures established at 3×10^4 cells/ml and exposing the cultures to the test agents for 72 hours. The results were expressed as percent inhibition compared to the negative (no drug) control. Positive drug controls of varying dilutions of 5-fluorouracil and adriamycin (Sigma Chemical Co., St. Louis, Mo.) were included to monitor drug sensitivity of the cell line.
(§3) To quantitate the effects of compounds on cell proliferation and resulting IC50 values, 75 μl of warm growth media containing 5 mg/ml MTT is added to each well, cultures returned to the incubator, and left undisturbed for 3 hours. To spectrophotometrically quantitate formation of reduced formazan, plates are centrifuged (500×g, 10 minutes), culture fluids removed by aspiration, and 200 μl of acidified isopropanol (2 ml concentrated HC1/liter isopropanol) added per well. The absorbance of the resulting solutions is measured in a plate reader (Tecan Spectra SLT; TECAN U.S., Research Triangle Park, NC) at 570 nm with a 650 nm reference filter. The absorbance of tests wells is divided by the absorbance of drug-free wells, and the concentration of agent that results in 50% of the absorbance of untreated cultures (IC50) is determined by linear regression of logit-transformed data (Finney, D. J. [1978] Statistical Method in Biological Assay, third ed., pp.316-348, Charles Griffin Co., London). A linear relationship between tumor cell number and formazan production has been routinely observed over the range of cell densities observed in these experiments. The two standard drug controls (indicated above) are included in each assay as a check to monitor the drug sensitivity of each of the cell lines and IC50 values are determined for each drug-cell combination.

[2] = tested on: A549 human lung adenocarcinoma cell line; test: A549 cytotoxicity (antiproliferative) MTT assay; type: cell-based; conditions: A549 human lung adenocarcinoma cells, 72 hours exposure
Procedure: as §1, §2, §3

[3] = tested on: NCI in vitro tumor cell line panel (approximately 60 cell lines); test: National Cancer Institute's in vitro tumor cell line panel; type: cell-based, human
Source text: Discalamide A was additionally evaluated for its anti-proliferative effects utilizing the National Cancer Institute's in vitro tumor cell line panel. The results of these analyses are shown in the mean graphs presented as FIG. 3. The data are presented using known and accepted measurements of “lethal concentration-50” (LC50) where 50% of the cells are killed.

## Discalamide B [2GP311 (Discalamide B)]
[1]
  IC50: 7.3 nM
[2]
  IC50: 3.2 nM

## C=C1C[C@](OC)([C@H](O)C(=O)N[C@H]2OCO[C@H]3[C@@H]2O[C@H](C[C@@H](CO)OC)C(C)(C)[C@@H]3OC)O[C@H](C)[C@@H]1C [Mycalamide B]
[1]
  IC50: 1.3 nM
[2]
  IC50: 0.6 nM

## Ecteinascidin 729
[1]
  IC50: 1.2 nM

## C=C/C=C\[C@H](C)[C@H](OC(N)=O)[C@@H](C)[C@H](O)[C@@H](C)C/C(C)=C\[C@H](C)[C@@H](O)[C@@H](C)/C=C\[C@@H](O)C[C@@H]1OC(=O)[C@H](C)[C@@H](O)[C@H]1C [Discodermolide]
[1]; Mus musculus
  IC50: 55 nM
[2]
  IC50: 25 nM

## C=C(CCC(C)C)COC(=O)[C@H](O)C/C=C\C[C@@H]1O[C@@H]2/C=C/C/C=C/C(C)=C\[C@H]3O[C@@H](C/C=C/C=C/C(=O)O[C@H](C2)[C@@]1(C)CO)C[C@H](O)[C@H]3C [Lasonolide A]
[1]
  IC50: 2.8 nM
[2]
  IC50: 57 nM

## C=C1C[C@](OC)([C@H](O)C(=O)N[C@H]2OCO[C@H]3[C@@H]2O[C@H](C[C@H](O)CCC/C=C/C=C/C=C/C(=O)N[C@@H](CCCNC(=N)N)C(=O)O)C(C)(C)[C@@H]3OC)O[C@H](C)[C@@H]1C [Onnamide A]
[1]
  IC50: 2.4 nM
[2]
  IC50: 170 nM

## C=C1C[C@](OC)([C@H](O)C(=O)N[C@H]2OCO[C@H]3[C@@H]2O[C@H](C[C@H](O)CO)C(C)(C)[C@@H]3OC)O[C@H](C)[C@@H]1C [Mycalamide A]
[1]
  IC50: 5.2 nM
[2]
  IC50: 3.6 nM

## C=C1C[C@](OC)([C@H](O)C(=O)N[C@H]2OCO[C@H]3[C@@H]2O[C@H](CC(/C=C/C/C=C/C=C/C(=O)O)OC)C(C)(C)[C@@H]3OC)O[C@H](C)[C@@H]1C (some centres unmarked) [2GP111 (Discalamide A), Discalamide A]
[1]
  IC50: 0.1 nM
[2]
  IC50: 1.5 nM
[3]; HL-60(TB), K562, COLO 205, HCC-2998, SF-295, SNB-19, LOX IMVI, MALME-3M, M14, SK-MEL-2, SK-MEL-28, SK-MEL-5, UACC-257, CAKI-1, HS578T, MDA-MB-231/ATCC
  effectiveness according to LC50 measurements for the NCI cell lines: particularly effective
[3]; of approximately 60 cell lines tested, bars to the right of the midline, FIG. 3
  selective cytotoxicity by LC50 mean graphs (number of cell lines): 16 cell lines

## Discalamide A methylester [2GP313 (Discalamide A-methylester)]
[1]
  IC50: 0.3 nM
[2]
  IC50: 0.8 nM

## COc1cc2c(cc1O)CCN[C@]21CS[C@@H]2c3c(OC(C)=O)c(C)c4c(c3[C@H](COC1=O)N1[C@@H]2[C@H]2c3c(cc(C)c(OC)c3O)C[C@@H]([C@@H]1O)N2C)OCO4 [Ecteinascidin 743]
[1]
  IC50: 1.7 nM

— patent publication US6476065B2, “Discalamide compounds and their use as anti-proliferative agents” (priority 2000, dated 2002)
